Species on record: Rattus norvegicus
Assay: DrugMatrix - Regimen: Daily Repeat
Format: toxicity, organism-based, Sprague-Dawley
Parameters: regimen Daily Repeat, gender Male, age 6-8 weeks
Details: in vivo, po, route oral GAVAGE, vehicle 100 % WATER; for CREATININE / GLUCOSE / LACTATE DEHYDROGENASE / LIPASE / PHOSPHORUS / POTASSIUM / SODIUM / TOTAL BILIRUBIN / TOTAL PROTEIN / URIC ACID / ALANINE AMINOTRANSFERASE / ALBUMIN / ALKALINE PHOSPHATASE / ASPARTATE AMINOTRANSFERASE / BLOOD UREA NITROGEN / CARBON DIOXIDE / CHLORIDE / CHOLESTEROL / CREATINE PHOSPHOKINASE: tissue Plasma; for ABSOLUTE BASOPHIL / ABSOLUTE EOSINOPHIL / ABSOLUTE LYMPHOCYTE / ABSOLUTE MONOCYTE / ABSOLUTE SEGMENTED NEUTROPHIL / BASOPHIL / EOSINOPHIL / ERYTHROCYTE COUNT / HEMATOCRIT / HEMOGLOBIN / LEUKOCYTE COUNT / LYMPHOCYTE / MEAN CORPUSCULAR HEMOGLOBIN / MEAN CORPUSCULAR HEMOGLOBIN CONCENTRATION / MEAN CORPUSCULAR VOLUME / MONOCYTE / NEUTROPHIL / NUCLEATED RED BLOOD CELLS / PLATELET COUNT: tissue Blood
[1] = 25 mg/kg, 120 h, dose level Low, time 5 day
[2] = 54 mg/kg, 72 h, dose level High, time 3 day
[3] = 54 mg/kg, 120 h, dose level High, time 5 day
[4] = 80 mg/kg, 72 h, dose level High, time 3 day
[5] = 80 mg/kg, 120 h, dose level High, time 5 day

CCC1(c2ccccc2)C(=O)NC(=O)NC1=O [PHENOBARBITAL]
CREATININE [1]: 0.15 mg/dL
GLUCOSE [1]: 135.67 mg/dL
LACTATE DEHYDROGENASE [1]: 131 u/L
LIPASE [1]: 9.33 u/L
PHOSPHORUS [1]: 11 mg/dL
POTASSIUM [1]: 6.37 MEQ/L
SODIUM [1]: 145.53 MEQ/L
TOTAL BILIRUBIN [1]: 0.17 mg/dL
TOTAL PROTEIN [1]: 6.23 G/DL
URIC ACID [1]: 0.7 mg/dL
ABSOLUTE BASOPHIL [2]: 0 CELLS/uL
ABSOLUTE EOSINOPHIL [2]: 0 CELLS/uL
ABSOLUTE LYMPHOCYTE [2]: 6613.67 CELLS/uL
ABSOLUTE MONOCYTE [2]: 76.67 CELLS/uL
ABSOLUTE SEGMENTED NEUTROPHIL [2]: 1009.67 CELLS/uL
BASOPHIL [2]: 0%
EOSINOPHIL [2]: 0%
ERYTHROCYTE COUNT [2]: 5.6 x10E6/uL
HEMATOCRIT [2]: 34.33%
HEMOGLOBIN [2]: 13.17 G/DL
LEUKOCYTE COUNT [2]: 7.7 x10E3/uL
LYMPHOCYTE [2]: 86%
MEAN CORPUSCULAR HEMOGLOBIN [2]: 23.53 pg
MEAN CORPUSCULAR HEMOGLOBIN CONCENTRATION [2]: 38.37 G/DL
MEAN CORPUSCULAR VOLUME [2]: 61.37 fL
MONOCYTE [2]: 1%
NEUTROPHIL [2]: 13%
NUCLEATED RED BLOOD CELLS [2]: 0 /100WBC
PLATELET COUNT [2]: 1130.67 x10E3/uL
ALANINE AMINOTRANSFERASE [2]: 66.33 u/L
ALBUMIN [2]: 3.9 G/DL
ALKALINE PHOSPHATASE [2]: 296.33 u/L
ASPARTATE AMINOTRANSFERASE [2]: 99.33 u/L
BLOOD UREA NITROGEN [2]: 16.33 mg/dL
CARBON DIOXIDE [2]: 35.67 mmol/L
CHLORIDE [2]: 98.5 MEQ/L
CHOLESTEROL [2]: 85.67 mg/dL
CREATINE PHOSPHOKINASE [2]: 643 u/L
CREATININE [2]: 0.14 mg/dL
GLUCOSE [2]: 132.33 mg/dL
LACTATE DEHYDROGENASE [2]: 152.67 u/L
LIPASE [2]: 11 u/L
PHOSPHORUS [2]: 10.93 mg/dL
POTASSIUM [2]: 5.81 MEQ/L
SODIUM [2]: 144.8 MEQ/L
TOTAL BILIRUBIN [2]: 0.2 mg/dL
TOTAL PROTEIN [2]: 5.87 G/DL
URIC ACID [2]: 0.63 mg/dL
ABSOLUTE BASOPHIL [3]: 0 CELLS/uL
ABSOLUTE EOSINOPHIL [3]: 0 CELLS/uL
ABSOLUTE LYMPHOCYTE [3]: 8394.67 CELLS/uL
ABSOLUTE MONOCYTE [3]: 27.33 CELLS/uL
ABSOLUTE SEGMENTED NEUTROPHIL [3]: 1011.33 CELLS/uL
BASOPHIL [3]: 0%
EOSINOPHIL [3]: 0%
ERYTHROCYTE COUNT [3]: 5.14 x10E6/uL
HEMATOCRIT [3]: 32.97%
HEMOGLOBIN [3]: 12.8 G/DL
LEUKOCYTE COUNT [3]: 9.43 x10E3/uL
LYMPHOCYTE [3]: 89.33%
MEAN CORPUSCULAR HEMOGLOBIN [3]: 24.87 pg
MEAN CORPUSCULAR HEMOGLOBIN CONCENTRATION [3]: 38.83 G/DL
MEAN CORPUSCULAR VOLUME [3]: 64.1 fL
MONOCYTE [3]: 0.33%
NEUTROPHIL [3]: 10.33%
NUCLEATED RED BLOOD CELLS [3]: 0 /100WBC
PLATELET COUNT [3]: 1251 x10E3/uL
ALANINE AMINOTRANSFERASE [3]: 51 u/L
ALBUMIN [3]: 4.2 G/DL
ALKALINE PHOSPHATASE [3]: 333.33 u/L
ASPARTATE AMINOTRANSFERASE [3]: 88.33 u/L
BLOOD UREA NITROGEN [3]: 18.33 mg/dL
CARBON DIOXIDE [3]: 32.67 mmol/L
CHLORIDE [3]: 100.67 MEQ/L
CHOLESTEROL [3]: 84 mg/dL
CREATINE PHOSPHOKINASE [3]: 245.33 u/L
CREATININE [3]: 0.16 mg/dL
GLUCOSE [3]: 134.67 mg/dL
LACTATE DEHYDROGENASE [3]: 129.33 u/L
LIPASE [3]: 9.67 u/L
PHOSPHORUS [3]: 10.53 mg/dL
POTASSIUM [3]: 6.17 MEQ/L
SODIUM [3]: 145.07 MEQ/L
TOTAL BILIRUBIN [3]: 0.2 mg/dL
TOTAL PROTEIN [3]: 6.4 G/DL
URIC ACID [3]: 0.8 mg/dL
BASOPHIL [4]: 0.45%
EOSINOPHIL [4]: 0.45%
ERYTHROCYTE COUNT [4]: 7.21 x10E6/uL
HEMATOCRIT [4]: 44%
HEMOGLOBIN [4]: 13.8 G/DL
LEUKOCYTE COUNT [4]: 13.79 x10E3/uL
LYMPHOCYTE [4]: 79.7%
MEAN CORPUSCULAR HEMOGLOBIN [4]: 19.15 pg
MEAN CORPUSCULAR HEMOGLOBIN CONCENTRATION [4]: 31.35 G/DL
MEAN CORPUSCULAR VOLUME [4]: 61.05 fL
MONOCYTE [4]: 2.35%
NEUTROPHIL [4]: 15.8%
PLATELET COUNT [4]: 1419.5 x10E3/uL
ALANINE AMINOTRANSFERASE [4]: 37.33 u/L
ALBUMIN [4]: 3.43 G/DL
ALKALINE PHOSPHATASE [4]: 281 u/L
ASPARTATE AMINOTRANSFERASE [4]: 57 u/L
BLOOD UREA NITROGEN [4]: 12.33 mg/dL
CHLORIDE [4]: 103 MEQ/L
CHOLESTEROL [4]: 84.33 mg/dL
CREATINE PHOSPHOKINASE [4]: 205.33 u/L
CREATININE [4]: 0.37 mg/dL
GLUCOSE [4]: 185 mg/dL
PHOSPHORUS [4]: 13.43 mg/dL
POTASSIUM [4]: 6.63 MEQ/L
SODIUM [4]: 147 MEQ/L
TOTAL BILIRUBIN [4]: 0.43 mg/dL
TOTAL PROTEIN [4]: 5.8 G/DL
BASOPHIL [5]: 0.43%
EOSINOPHIL [5]: 0.4%
ERYTHROCYTE COUNT [5]: 6.51 x10E6/uL
HEMATOCRIT [5]: 40.63%
HEMOGLOBIN [5]: 13.03 G/DL
LEUKOCYTE COUNT [5]: 13 x10E3/uL
LYMPHOCYTE [5]: 81.9%
MEAN CORPUSCULAR HEMOGLOBIN [5]: 20.1 pg
MEAN CORPUSCULAR HEMOGLOBIN CONCENTRATION [5]: 32.13 G/DL
MEAN CORPUSCULAR VOLUME [5]: 62.43 fL
MONOCYTE [5]: 2.6%
NEUTROPHIL [5]: 13.63%
PLATELET COUNT [5]: 1415.67 x10E3/uL
ALANINE AMINOTRANSFERASE [5]: 40.33 u/L
ALBUMIN [5]: 3.43 G/DL
ALKALINE PHOSPHATASE [5]: 257 u/L
ASPARTATE AMINOTRANSFERASE [5]: 54 u/L
BLOOD UREA NITROGEN [5]: 12 mg/dL
CHLORIDE [5]: 103.67 MEQ/L
CHOLESTEROL [5]: 104 mg/dL
CREATINE PHOSPHOKINASE [5]: 162.67 u/L
CREATININE [5]: 0.37 mg/dL
GLUCOSE [5]: 183.67 mg/dL
PHOSPHORUS [5]: 12.7 mg/dL
POTASSIUM [5]: 6.67 MEQ/L
SODIUM [5]: 145.67 MEQ/L
TOTAL BILIRUBIN [5]: 0.33 mg/dL
TOTAL PROTEIN [5]: 5.87 G/DL

— ChEMBL document CHEMBL3885881, “DrugMatrix”
